Consider one molecule from patent US20230288433A1, “DETECTION OF PHOSPHOINOSITIDES IN BLOOD CELLS AS A BIOMARKER FOR ALPHA SYNUCLEIN ASSOCIATED PATHOLOGIES AND A METHOD OF TREATMENT OF PARKINSON'S DISEASE AND THE RELATED NEURODEGENERATIONS” (YISSUM RESEARCH DEVELOPMENT COMPANY OF THE HEBREW …, priority 2021, published 2023).

What all share (type): cell-based
The test system of one assay is α-Syn. The experiment in a line: α-Syn expression by qPCR in Tet-on inducible SH-SY5Y cells. Conditions: with versus without doxycycline for 72 hours. Here is the method:
FIGS. 4A-4J include micrographs and graphs showing that α-Syn effect to elongate axons and collaterals is mediated through PI4,5P2. (4A) PI4,5P2 levels determined by FACS, in HEK 293T cells, following 48 hours from cell transfection with α-Syn and/or Sj-1 phosphatase, as indicated. Mean±SD of two independent experiments, n>3,000 cells in each treatment; P<0.05, one-way ANOVA. (4B) PI4,5P2 levels determined by FACS in HEK 293T cells transfected with α-Syn and/or PIPKIγ as indicated. Mean±SD of two independent experiments, n>3,000 cells in each treatment; P<0.05, one-way ANOVA. […] GFP signal was captured by direct fluorescence. […] (4E) Total length of collaterals per axon (in μm); and (4F) PI4,5P2 levels within the axon and its collaterals (per axon area) quantified by Fiji program. […] Western blot showing mCherry Nir2 signal detected with anti Nir2 ab (Abcam). PI4,5P2 levels determined by FACS. […] PI4,5P2 levels determined by FACS. […] (4I) Quantitative PCR (qPCR) detection of α-Syn following its induced expression in SH-SYSY cells without and with the addition of doxycycline for 72 hours. α-Syn mRNA levels normalized to the levels of G6PD gene detected in the same sample. (4J) Quantitative detection of NIR2 expression by qPCR in these cells. […]

The test system of assay [1] is SH-SY5Y cells. The experiment in a line: PI4,5P2 levels by FACS in Tet-on inducible α-Syn SH-SY5Y cells. Here is the method: Analysis was performed as previously described with some modifications. Cells were suspended and washed in clear DMEM; followed by 20 minutes fixation in 2% (v/w) paraformaldehyde at 4° C.; and permeabilization in 0.2% saponin in 1% BSA (w/v) for 15 minutes at 4° C. Cells were then incubated with anti α-Syn antibody (MJFR1, 1:2,000) and anti PI4,5P2 antibody (1:200, see Table 2) for 90 minutes at 4° C. with gentle rolling; washed and probed with the respective secondary antibody for 30 minutes at room temperature. FACS analysis in SK-mel2 cells was performed 7-14 days following viral transduction. During this time effective α-Syn knockdown was confirmed using rt-PCR and Western blotting. HEK 293T cells were analyzed by FACS forty-eight hours from transfection. Analyses were performed using BD LSRFortessa Cell Analyzer, equipped with 5 lasers (355, 405, 488, 561 and 640 nm) and the FLOWJO, LLC software. Mock-GFP, Sj-1 or PIPKIγ expression were directly detected at 488 nm based on a GFP-tag. […] A total of 2,000-4,000 gated cells were counted in each experiment unless indicated differently.
To test the mechanism through which α-Syn increases cellular PI4,5P2 levels, the inventors tested the potential involvement of Nir2-expression. […] 72 hours post DNA transfection, PI4,5P2 levels were determined by FACS. […] PI4,5P2 levels were determined by FACS following 3 days of incubation with doxycycline. […]

The test system of assay [2] is SH-SY5Y cells. The experiment in a line: 568-Tf endocytosis by ICC in Tet-on inducible α-Syn SH-SY5Y cells. To be noted: doxycycline 72 hours; cells not induced set at 100%.

Regarding `C[C@H]1c2cccc(O)c2C(=O)C2=C(O)[C@]3(O)C(=O)C(C(N)=O)=C(O)[C@@H](N(C)C)[C@@H]3[C@@H](O)[C@@H]21` [doxycycline], in the assay on α-Syn, the “α-Syn levels of expression” value is about 25 folds. The “PI4,5P2 signal” value with SH-SY5Y cells [1] (FACS after 3 days of doxycycline, shCntrl cells) is about 146%. Moreover, the “PI4,5P2 levels” value in the assay with SH-SY5Y cells [1] (doxycycline 72 hours, cells not induced set at 100%) is 151%. In addition, the “internalization of 568-Tf” value in the assay with SH-SY5Y cells [2] is 133%.
